Results published in paper PMC7559231, “Drug-induced cholestasis assay in primary hepatocytes” (MethodsX, 2020).
Like-named read-outs stand apart in the source and are kept apart here.

Legend:
[1] = tested on: sandwich-cultured human hepatocytes; assay: Drug-induced cholestasis (DIC) assay: urea formation in sandwich-cultured human hepatocytes with and without the bile salt mixture; details: lowest in vitro concentration with DICI < 0.78 / Cmax,total; for DICI-based SM obtained with the ‘original’ LOAEL method 24 h: 24 h incubation; for DICI-based SM obtained with the ‘original’ LOAEL method 48 h: 48 h incubation
Description: Drug-induced cholestasis (DIC) is a major cause of attrition during drug development and post-marketing withdrawal. Early detection of DIC is crucial for avoiding financial losses and improving drug safety. Preclinical assays for DIC detection often rely on evaluation of the test compound towards individual cellular targets such as their inhibitory potential towards the bile salt export pump (BSEP) by using BSEP membrane vesicles. However, the underlying mechanisms of DIC development are more complex involving multiple other transporters and nuclear receptors. A more comprehensive in vitro model such as sandwich-cultured human hepatocytes (SCHH) are more suited due to the presence of metabolizing enzymes and transporters relevant to bile salt disposition. The assay described here relies on changes in the ability of SCHH to produce urea from ammonia in the absence and presence of a (patho-)physiologically relevant bile salt mixture. Ammonia is detoxified in the hepatocyte by the urea cycle to form non-toxic urea. Measuring changes in urea production allows for the quantitative evaluation of the hepatocyte's biochemical and functional integrity. The colorimetric quantitation of urea formation is based on the reaction between urea and diacetylmonoxime.
By determining the ratio of urea formation after incubation with test compound in absence and in presence of the bile salt mixture, the DIC index (DICI) value can be calculated. […] It was previously established that a compound with a SM below 30 can be considered to display increased risk for causing cholestasis in the clinic.
If longer incubations are required (e.g. 48 h), the medium is changed again after 24 h (day 6) with fresh medium containing the same initial concentrations of test compound and bile salts as 24 h before.
• Solution 1: culture medium with no compound and 0.2% DMSO. […] This solution should be filtered through a 0.2 µm filter and prewarmed for 30 min at 37°C. • Solution 4: culture medium with double concentrated test compound. […] This solution should be filtered through a 0.2 µm filter and prewarmed for 30 min at 37°C. • Solution 5: control medium with bile salts, prepared by mixing solution 1 and solution 2 in a 1:1 ratio. • Solution 6: culture medium with positive control without bile salts, prepared by mixing solution 1 and solution 3 in a 1:1 ratio. • Solution 7: culture medium with positive control with bile salts, prepared by mixing solution 2 and solution 3 in a 1:1 ratio. • Solution 8: culture medium with test compound without bile salts, prepared by mixing solution 1 and solution 4 in a 1:1 ratio. • Solution 9: culture medium with test compound with bile salts, prepared by mixing solution 2 and solution 4 in a 1:1 ratio.
• 1. On day 5, aspirate the medium and preincubate the cells with solution 1, solution 6 or solution 8 for 2 h. Note: this preincubation step is performed to enable the compounds to interact with the cellular machinery. • 2. After 2 h, aspirate the medium and immediately incubate the cells with solution 1, solution 5, solution 6, solution 7, solution 8 or solution 9 for 22 h.
The urea assay is performed on day 6 or day 7 for 24 h and 48 h incubations, respectively.
• Solutions for the color reagent. […] Note: perform this procedure on ice as this is an exothermic reaction. Wear appropriate protective gear. • ○ Solution B prepared by mixing the thiosemicarbazide solution and the diacetyl monoxime in a 1:1 ratio. • Incubation buffer: HBSS containing 10 mM HEPES, 2 mM glutamine, 10 mM ammonium chloride and 3 mM ornithine, filtered through a 0.2 µm filter and prewarmed at 37°C. • 96-well thermostable plate with aluminum cover slip.
• 1. Aspirate the culture medium. • 2. Wash the wells twice with 250 µL prewarmed incubation buffer. Aspirate the remaining buffer. • 3. Add 125 µL prewarmed incubation buffer to each well and keep the plate at 37°C for 1 h. • 4.

[2] = set-up: method as in per compound in column References of Table 3 ([3], [24]-[44]); details: mean total peak plasma concentration in humans; ref per compound in Table 3 ([3], [24]-[44]); cited from earlier work
[3] = tested on: sandwich-cultured human hepatocytes; details: SCHH, ref [6],[7], cited from earlier work; for DICI 24 h Mean: 24 h exposure; for DICI 48 h Mean: 48 h exposure

## CCN(CC)C(=O)/C(C#N)=C/c1cc(O)c(O)c([N+](=O)[O-])c1 [Entacapone, entacapone]
[1]
  DICI-based SM obtained with the ‘original’ LOAEL method 24 h: 29.95
  DICI-based SM obtained with the ‘original’ LOAEL method 48 h: 29.95
[2]
  Cmax,total: 4.34 µM
[3]; 10 µM test compound
  DICI 24 h Mean: 1.11
  DICI 48 h Mean: 1.02
[3]; 30 µM test compound
  DICI 24 h Mean: 1.07
  DICI 48 h Mean: 0.98
[3]; 130 µM test compound
  DICI 24 h Mean: 0.62
  DICI 48 h Mean: 0.10

## Cc1c(C)c2c(c(C)c1O)CCC(C)(COc1ccc(CC3SC(=O)NC3=O)cc1)O2 (stereo not drawn) [Troglitazone, troglitazone]
[1]
  DICI-based SM obtained with the ‘original’ LOAEL method 24 h: 15.65
  DICI-based SM obtained with the ‘original’ LOAEL method 48 h: 15.65
[2]
  Cmax,total: 6.39 µM
[3]; 20 µM test compound
  DICI 24 h Mean: 0.98
  DICI 48 h Mean: 1.09
[3]; 50 µM test compound
  DICI 24 h Mean: 1.02
  DICI 48 h Mean: 1.00
[3]; 75 µM test compound
  DICI 24 h Mean: 0.78
  DICI 48 h Mean: 0.79
[3]; 100 µM test compound
  DICI 24 h Mean: 0.74
  DICI 48 h Mean: 0.24

## CN(C)CCCN1c2ccccc2Sc2ccc(Cl)cc21 [Chlorpromazine, chlorpromazine]
[1]
  DICI-based SM obtained with the ‘original’ LOAEL method 24 h: 265.96
[2]
  Cmax,total: 0.0376 µM
[3]; 10 µM test compound
  DICI 24 h Mean: 0.48

## COC(=O)N[C@H](C(=O)N[C@@H](Cc1ccccc1)[C@@H](O)CN(Cc1ccc(-c2ccccn2)cc1)NC(=O)[C@@H](NC(=O)OC)C(C)(C)C)C(C)(C)C [Atazanavir, atazanavir]
[1]
  DICI-based SM obtained with the ‘original’ LOAEL method 24 h: 31.12
  DICI-based SM obtained with the ‘original’ LOAEL method 48 h: 31.12
[2]
  Cmax,total: 4.82 µM
[3]; 50 µM test compound
  DICI 24 h Mean: 0.87
  DICI 48 h Mean: 0.86
[3]; 150 µM test compound
  DICI 24 h Mean: 1.19
  DICI 48 h Mean: 0.73

## CCc1nn(CCCN2CCN(c3cccc(Cl)c3)CC2)c(=O)n1CCOc1ccccc1 [Nefazodone, nefazodone]
[1]
  DICI-based SM obtained with the ‘original’ LOAEL method 48 h: 7.04
[2]
  Cmax,total: 4.26 µM
[3]; 10 µM test compound
  DICI 24 h Mean: 0.69
  DICI 48 h Mean: 1.18
[3]; 30 µM test compound
  DICI 24 h Mean: 0.77
  DICI 48 h Mean: 0.37
[3]; 130 µM test compound
  DICI 24 h Mean: 1.09

## CCC(=O)O[C@@H]1CC(=O)O[C@H](C)C/C=C/C=C/[C@H](O)[C@H](C)C[C@H](CC=O)[C@H](O[C@@H]2O[C@H](C)[C@@H](O[C@H]3C[C@@](C)(O)[C@@H](OC(=O)CC)[C@H](C)O3)[C@H](N(C)C)[C@H]2O)[C@H]1OC [Midecamycin, midecamycin]
[1]
  DICI-based SM obtained with the ‘original’ LOAEL method 24 h: 50
  DICI-based SM obtained with the ‘original’ LOAEL method 48 h: 50
[2]
  Cmax,total: 2 µM
[3]; 100 µM test compound
  DICI 24 h Mean: 0.71
  DICI 48 h Mean: 1.07

## CCc1ccc(CCOc2ccc(CC3SC(=O)NC3=O)cc2)nc1 (stereo not drawn) [Pioglitazone, pioglitazone]
[1]
  DICI-based SM obtained with the ‘original’ LOAEL method 24 h: 101.69
  DICI-based SM obtained with the ‘original’ LOAEL method 48 h: 101.69
[2]
  Cmax,total: 2.95 µM
[3]; 50 µM test compound
  DICI 24 h Mean: 1.15
[3]; 100 µM test compound
  DICI 24 h Mean: 1.00
[3]; 300 µM test compound
  DICI 24 h Mean: 0.94
